Earlier results, collected in patent US7378261B2, “Method for preparing para-hydroxystyrene by biocatalytic decarboxylation of para-hydroxycinnamic acid in a biphasic reaction medium” (E.I. du Pont de Nemours and Company, priority 2003, dated 2008).

Conditions: logarithm of solvent's partition coefficient in standard octanol:water mixture

In order of falling “log P” value:
1. CCCCCCCCCC(C)=O [2-undecanone]  4.21
2. CCCCCC [hexane]  3.9
3. CCCCCCCCC(C)O (centres unmarked) [2-decanol]  3.71
4. CCCCCCC(O)CCC (centres unmarked) [4-decanol]  3.71
5. CCCCCCCC(C)O (centres unmarked) [2-nonanol]  3.22
6. CCCCCCCC(=O)CC [3-decanone]  3.2
7. CCCCCCC(=O)CCC [4-decanone]  3.2
8. CCCCCC(C)O (centres unmarked) [2-heptanol]  2.24
